Measured values reported in patent US9242998B2, “Tetracyclic heterocycle compounds and methods of use thereof for the treatment of hepatitis C” (priority 2013, dated 2016).

Experiments:
[1] = tested on: HCV genotype 1a replicon; test: HCV replicon assay, genotype 1a (cell ELISA for replicon-encoded NS3/4A); assay type: cell-based; conditions: Hepatitis C virus, 96 h, read-out: 1a IC50
Procedure: (§1) Measurement of inhibition by compounds was performed using the HCV replicon system. Several different replicons encoding different HCV genotypes or mutations were used. In addition, potency measurements were made using different formats of the replicon assay, including different ways of measurements and different plating formats. See Jan M. Vrolijk et al., A replicons-based bioassay for the measurement of interferons in patients with chronic hepatitis C, 110 J. V[…] 201 (2003); Steven S. Carroll et al., Inhibition of Hepatitis C Virus RNA Replication by 2′-Modified Nucleoside Analogs, 278(14) J. BIOLOGICAL CHEMISTRY 11979 (2003). However, the underlying principles are common to all of these determinations, and are outlined below.
(§2) Stable neomycin phosphotransferase encoding replicons-harboring cell lines were used, so all cell lines were maintained under G418 selection prior to the assay. Potency was determined using a cell ELISA assay with an antibody to the replicons encoded NS3/4a protease. See Caterina Trozzi et al., In Vitro Selection and Characterization of Hepatitis C Virus Serine Protease Variants Resistant to an Active-Site Peptide Inhibitor, 77(6) J. Virol. 3669 (2003). To initiate an assay, replicon cells were plated in the presence of a dilution series of test compound in the absence of G418. Typically, the assays were performed in a 96-well plate formate for manual operation, or a 384-well plate format for automated assay. Replicon cells and compound were incubated for 96 hours. At the end of the assay, cells were washed free of media and compound, and the cells were then lysed. RNA was quantified indirectly through detection of replicon-encoded NS3/4A protein levels, through an ELISA-based assay with an antibody specific for NS3/4A. IC50 determinations were calculated as a percentage of a DMSO control by fitting the data to a four-parameter fit function and the data obtained is provided in the table below.
(§3) Data for selected compounds of the present invention was obtained for genotypes 1a and 1b using this method and is provided in the table below: […]

[2] = tested on: HCV genotype 1b replicon; test: HCV replicon assay, genotype 1b (cell ELISA for replicon-encoded NS3/4A); assay type: cell-based; conditions: Hepatitis C virus, 96 h, read-out: 1b IC50
Procedure: as §1, §2, §3

CNC(=O)c1c(-c2ccc(Oc3ccc(F)cc3)nc2)oc2cc(N(C)S(C)(=O)=O)c(-c3ccc4c(n3)-c3cc5c(F)cccc5n3CO4)cc12 [Compound 27, 5-(11-fluoro-6H-pyrido[2′,3′:5,6][1,3]oxazino[3,4-a]indol-2-yl)-2-(6-(4-fluorophenoxy)pyridin-3-yl)-N-methyl-6-(N-methylmethylsulfonamido)benzofuran-3-carboxamide]
IC50 [1]: 23 nM | IC50 [2]: 34 nM

CCOc1ccc(-c2oc3cc(N(C)S(C)(=O)=O)c(-c4ccc5c(n4)-c4cc6c(F)cccc6n4CO5)cc3c2C(=O)NC)cn1 [Compound 6]
IC50 [1]: 17 nM | IC50 [2]: 12 nM

CNC(=O)c1c(-c2ccc(OCC(F)(F)F)nc2)oc2cc(N(C)S(C)(=O)=O)c(-c3ccc4c(n3)-c3cc5c(F)cccc5n3CO4)cc12 [Compound 12]
IC50 [1]: 2.7 nM | IC50 [2]: 1.8 nM

CNC(=O)c1c(-c2ccc(OC)nc2)oc2cc(N(C)S(C)(=O)=O)c(-c3ccc4c(n3)-c3nc5c(F)cccc5n3CO4)cc12 [Compound 20, 5-(11-fluoro-6H-benzo[4,5]imidazo[1,2-c]pyrido[2,3-e][1,3]oxazin-2-yl)-2-(6-methoxypyridin-3-yl)-N-methyl-6-(N-methylmethylsulfonamido)benzofuran-3-carboxamide]
IC50 [1]: 3.7 nM | IC50 [2]: 2.5 nM

CNC(=O)c1c(-c2ccc(OCC(F)(F)F)nc2)oc2cc(N(C)S(C)(=O)=O)c(-c3ccc4c(n3)-c3cc5c(F)cccc5n3C(CO)O4)cc12 (centres unmarked) [Compound 24]
IC50 [1]: 1.7 nM | IC50 [2]: 1.4 nM

CNC(=O)c1c(-c2ccc(=O)n(C(F)F)c2)oc2cc(N(C)S(C)(=O)=O)c(-c3ccc4c(n3)-c3cc5c(F)cccc5n3CO4)cc12 [Compound 26, 2-(1-(difluoromethyl)-6-oxo-1,6-dihydropyridin-3-yl)-5-(11-fluoro-6H-pyrido[2′,3′:5,6][1,3]oxazino[3,4-a]indol-2-yl)-N-methyl-6-(N-methylmethylsulfonamido)benzofuran-3-carboxamide]
IC50 [1]: 118 nM | IC50 [2]: 108 nM

CNC(=O)c1c(C(=O)N2CCC2)oc2cc(N(C)S(C)(=O)=O)c(-c3ccc4c(n3)-c3cc5c(F)cccc5n3CO4)cc12 [Compound 56]
IC50 [1]: 5 nM | IC50 [2]: 11 nM

CNC(=O)c1c(-c2cn(C)nc2C)oc2cc(N(C)S(C)(=O)=O)c(-c3ccc4c(n3)-c3cc5c(F)cccc5n3CO4)cc12 [Compound 16]
IC50 [1]: 26 nM | IC50 [2]: 8.5 nM

CNC(=O)c1c(N2CCOCC2)oc2cc(N(C)S(C)(=O)=O)c(-c3ccc4c(n3)-c3cc5c(F)cccc5n3CO4)cc12 [Compound 42, 5-(11-fluoro-6H-pyrido[2′,3′:5,6][1,3]oxazino[3,4-a]indol-2-yl)-N-methyl-6-(N-methylmethylsulfonamido)-2-morpholinobenzofuran-3-carboxamide]
IC50 [1]: 85 nM | IC50 [2]: 35 nM

CNC(=O)c1c(-c2ccn(C)c(=O)c2)oc2cc(N(C)S(C)(=O)=O)c(-c3ccc4c(n3)-c3cc5c(F)cccc5n3CO4)cc12 [Compound 18, 5-(11-fluoro-6H-pyrido[2′,3′:5,6][1,3]oxazino[3,4-a]indol-2-yl)-N-methyl-2-(1-methyl-2-oxo-1,2-dihydropyridin-4-yl)-6-(N-methylmethylsulfonamido)benzofuran-3-carboxamide]
IC50 [1]: 57 nM | IC50 [2]: 29 nM

CNC(=O)c1c(-c2ccc(C(F)(F)F)cc2)oc2cc(N(C)S(C)(=O)=O)c(-c3ccc4c(n3)-c3cc5c(F)cccc5n3CO4)cc12 [Compound 8]
IC50 [1]: 6.3 nM | IC50 [2]: 4.5 nM

CNC(=O)c1c(-c2ccc(C(F)(F)F)nc2)oc2cc(N(C)S(C)(=O)=O)c(-c3ccc4c(n3)-c3cc5c(F)cccc5n3CO4)cc12 [Compound 35]
IC50 [1]: 2.8 nM | IC50 [2]: 3.1 nM

CNC(=O)c1c(-c2ccc(OC)nc2)oc2cc(N(C)S(C)(=O)=O)c(-c3ccc4c(n3)-c3cc5c(F)cccc5n3C(CO)O4)cc12 (single isomer, unassigned) [Compound 21, (S or R)-5-(11-fluoro-6-(hydroxymethyl)-6H-pyrido[2′,3′:5,6][1,3]oxazino[3,4-a]indol-2-yl)-2-(6-methoxypyridin-3-yl)-N-methyl-6-(N-methylmethylsulfonamido)benzofuran-3-carboxamide]
IC50 [1]: 2.4 nM | IC50 [2]: 2.8 nM

CNC(=O)c1c(C2=CCSCC2)oc2cc(N(C)S(C)(=O)=O)c(-c3ccc4c(n3)-c3cc5c(F)cccc5n3CO4)cc12 [Compound 32, 2-(3,6-dihydro-2H-thiopyran-4-yl)-5-(11-fluoro-6H-pyrido[2′,3′:5,6][1,3]oxazino[3,4-a]indol-2-yl)-N-methyl-6-(N-methylmethylsulfonamido)benzofuran-3-carboxamide]
IC50 [1]: 36 nM | IC50 [2]: 14 nM

CNC(=O)c1c(/C(C)=N/OC)oc2cc(N(C)S(C)(=O)=O)c(-c3ccc4c(n3)-c3cc5c(F)cccc5n3CO4)cc12 [Compound 59, 5-(11-fluoro-6H-pyrido[2′,3′:5,6][1,3]oxazino[3,4-a]indol-2-yl)-2-(1-(methoxyimino)ethyl)-N-methyl-6-(N-methylmethylsulfonamido)benzofuran-3-carboxamide]
IC50 [1]: 34 nM | IC50 [2]: 13 nM

CCn1cc(-c2oc3cc(N(C)S(C)(=O)=O)c(-c4ccc5c(n4)-c4cc6c(F)cccc6n4CO5)cc3c2C(=O)NC)cn1 [Compound 14]
IC50 [1]: 9.1 nM | IC50 [2]: 18 nM

CNC(=O)c1c(-c2ccc(OC)nc2)oc2cc(N(C)S(C)(=O)=O)c(-c3ccc4c(n3)-c3cc5c(F)cccc5n3CO4)cc12 [Compound 11]
IC50 [1]: 7.2 nM | IC50 [2]: 8.4 nM

CNC(=O)c1c(-c2ccnc(OC)c2)oc2cc(N(C)S(C)(=O)=O)c(-c3ccc4c(n3)-c3cc5c(F)cccc5n3CO4)cc12 [Compound 1, 5-(11-fluoro-6H-pyrido[2′,3′:5,6][1,3]oxazino[3,4-a]indol-2-yl)-2-(2-methoxypyridin-4-yl)-N-methyl-6-(N-methylmethylsulfonamido)benzofuran-3-carboxamide]
IC50 [1]: 11 nM | IC50 [2]: 14 nM

CNC(=O)c1c(-c2cnc(OC)nc2)oc2cc(N(C)S(C)(=O)=O)c(-c3ccc4c(n3)-c3cc5c(F)cccc5n3CO4)cc12 [Compound 13]
IC50 [1]: 16 nM | IC50 [2]: 9.4 nM

CNC(=O)c1oc2cc(N(C)S(C)(=O)=O)c(-c3ccc4c(n3)-c3cc5c(F)cccc5n3CO4)cc2c1C(=O)NC [Compound 54, 5-(11-fluoro-6H-pyrido[2′,3′:5,6][1,3]oxazino[3,4-a]indol-2-yl)-N2,N3-dimethyl-6-(N-methylmethylsulfonamido)benzofuran-2,3-dicarboxamide]
IC50 [1]: 4.3 nM | IC50 [2]: 7.1 nM

CNC(=O)c1c(-c2ccc(OC(F)F)nc2)oc2cc(N(C)S(C)(=O)=O)c(-c3ccc4c(n3)-c3cc5c(F)cccc5n3C(CO)O4)cc12 (centres unmarked) [Compound 23]
IC50 [1]: 2.8 nM | IC50 [2]: 2.9 nM

CNC(=O)c1c(C23CCCC2C3)oc2cc(N(C)S(C)(=O)=O)c(-c3ccc4c(n3)-c3cc5c(F)cccc5n3CO4)cc12 (centres unmarked) [Compound 48, 2-(bicyclo[3.1.0]hexan-1-yl)-5-(11-fluoro-6H-pyrido[2′,3′:5,6][1,3]oxazino[3,4-a]indol-2-yl)-N-methyl-6-(N-methylmethylsulfonamido)benzofuran-3-carboxamide]
IC50 [1]: 28 nM | IC50 [2]: 34 nM

CNC(=O)c1c(-c2nnc(C)o2)oc2cc(N(C)S(C)(=O)=O)c(-c3ccc4c(n3)-c3cc5c(F)cccc5n3CO4)cc12 [Compound 58, 5-(11-fluoro-6H-pyrido[2′,3′:5,6][1,3]oxazino[3,4-a]indol-2-yl)-N-methyl-2-(5-methyl-1,3,4-oxadiazol-2-yl)-6-(N-methylmethylsulfonamido)benzofuran-3-carboxamide]
IC50 [1]: 8.1 nM | IC50 [2]: 7.9 nM

CNC(=O)c1c(C(=O)N(C)C)oc2cc(N(C)S(C)(=O)=O)c(-c3ccc4c(n3)-c3cc5c(F)cccc5n3CO4)cc12 [Compound 55]
IC50 [1]: 4 nM | IC50 [2]: 6.4 nM

CNC(=O)c1c(-c2ccc(C(F)F)nc2)oc2cc(N(C)S(C)(=O)=O)c(-c3ccc4c(n3)-c3cc5c(F)cccc5n3CO4)cc12 [Compound 9]
IC50 [1]: 2.5 nM | IC50 [2]: 3.4 nM

CNC(=O)c1c(-c2ccc(OC(F)F)nc2)oc2cc(N(C)S(C)(=O)=O)c(-c3ccc4c(n3)-c3cc5c(F)cccc5n3CO4)cc12 [Compound 25, 2-(6-(difluoromethoxy)pyridin-3-yl)-5-(11-fluoro-6H-pyrido[2′,3′:5,6][1,3]oxazino[3,4-a]indol-2-yl)-N-methyl-6-(N-methylmethylsulfonamido)benzofuran-3-carboxamide]
IC50 [1]: 3 nM | IC50 [2]: 5 nM

CNC(=O)c1c(-n2ccccc2=O)oc2cc(N(C)S(C)(=O)=O)c(-c3ccc4c(n3)-c3cc5c(F)cccc5n3CO4)cc12 [Compound 37]
IC50 [1]: 2.2 nM | IC50 [2]: 3 nM

CNC(=O)c1c(C2CC2(C)C)oc2cc(N(C)S(C)(=O)=O)c(-c3ccc4c(n3)-c3cc5c(F)cccc5n3CO4)cc12 (centres unmarked) [Compound 49]
IC50 [1]: 27 nM | IC50 [2]: 22 nM
